Test results from the supplement of paper PMC10307832.

Compound: CC1(C)CCC(CN2CCN(c3ccc(C(=O)NS(=O)(=O)c4ccc(NCC5CCOCC5)c([N+](=O)[O-])c4)c(Oc4cnc5[nH]ccc5c4)c3)CC2)=C(c2ccc(Cl)cc2)C1 [Venetoclax] + Nc1nc2[nH]cc(CCc3ccc(C(=O)N[C@@H](CCC(=O)O)C(=O)O)cc3)c2c(=O)[nH]1 [Pemetrexed] (partner 0.2 µM)
Test: relative viability (nuclei count vs DMSO), 5 days (fraction); higher = more cells survive
Details: first compound 0.01 µM
Outline: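 Lung cancer cell lines were seeded in 1536-well plates and dosed by pin tool the next day, with either a single drug or a fixed anchor-drug dose combined with five library-drug doses (not always all listed) spaced in √10 steps. Five days later, one step fixed the cells and stained their nuclei (final 0.05% Triton X-100, 1% formaldehyde, 1 ug/ml Hoechst), and nuclei were counted on 4× images. Relative viability is the nuclei count in treated wells divided by the count in vehicle wells, and each value is the median of duplicate plates.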

Cell Line | relative viability
NCI-H522 | 1.13
PC-14 | 0.154
NCI-H1666 | 0.726
NCI-H1755 | 0.39
NCI-H2023 | 0.238
EPLC-272H | 0.361
LCLC-97TM1 | 0.165
PC-3 [JPC-3] | 1.05
LOU-NH91 | 0.362
NCI-H647 | 0.164
NCI-H23 | 0.671
EMC-BAC-2 | 0.406
NCI-H2126 | 0.748
HCC-44 | 0.667
NCI-H1734 | 0.417
NCI-H650 | 0.911
LK-2 | 0.331
NCI-H2228 | 0.341

Cell Line | relative viability
NCI-H2342 | 0.872
SK-MES-1 | 0.918
HARA | 0.216
COR-L23 | 0.181
COR-L 105 | 0.738
LC-2-ad | 0.283
LXF-289 | 0.986
ChaGo-K-1 | 0.257
NCI-H2170 | 0.25
NCI-H322M | 0.606
HCC-78 | 0.896
SW 900 | 0.478
NCI-H1792 | 0.416
NCI-H1395 | 0.823
NCI-H1563 | 0.847
NCI-H1793 | 0.944
NCI-H1944 | 0.669
NCI-H358 | 0.176

Same assay, conditions: first compound 0.03162 µM

Cell Line | relative viability
NCI-H522 | 1.01
PC-14 | 0.135
NCI-H1666 | 0.916
NCI-H1755 | 0.475
NCI-H2023 | 0.243
EPLC-272H | 0.316
LCLC-97TM1 | 0.182
PC-3 [JPC-3] | 1.45
LOU-NH91 | 0.365
NCI-H647 | 0.192
NCI-H23 | 0.747
EMC-BAC-2 | 0.457
NCI-H2126 | 0.737
HCC-44 | 0.673
NCI-H1734 | 0.459
NCI-H650 | 1.02
LK-2 | 0.381
NCI-H2228 | 0.331
NCI-H2342 | 0.784

Cell Line | relative viability
SK-MES-1 | 1.08
HARA | 0.247
COR-L23 | 0.177
COR-L 105 | 1.03
LC-2-ad | 0.27
LXF-289 | 0.948
ChaGo-K-1 | 0.26
NCI-H2170 | 0.278
NCI-H322M | 0.581
HCC-78 | 0.875
SW 900 | 0.51
NCI-H1648 | 0.774
NCI-H1792 | 0.998
NCI-H1395 | 0.862
NCI-H1563 | 0.902
NCI-H1793 | 0.976
NCI-H1944 | 0.592
NCI-H358 | 0.176

Same assay, conditions: first compound 0.1 µM

Cell Line | relative viability
NCI-H522 | 0.879
PC-14 | 0.13
NCI-H1666 | 0.919
NCI-H1755 | 0.397
NCI-H2023 | 0.263
EPLC-272H | 0.356
LCLC-97TM1 | 0.167
PC-3 [JPC-3] | 1.18
LOU-NH91 | 0.392
NCI-H647 | 0.206
NCI-H23 | 0.597
EMC-BAC-2 | 0.407
NCI-H2126 | 0.67
HCC-44 | 0.63
NCI-H1734 | 0.399
NCI-H650 | 1.03
LK-2 | 0.255
NCI-H2228 | 0.36

Cell Line | relative viability
NCI-H2342 | 0.747
SK-MES-1 | 0.994
COR-L23 | 0.189
COR-L 105 | 1.11
LC-2-ad | 0.256
LXF-289 | 0.782
ChaGo-K-1 | 0.255
NCI-H2170 | 0.259
NCI-H322M | 0.598
HCC-78 | 0.965
SW 900 | 0.465
NCI-H1648 | 0.64
NCI-H1792 | 0.7
NCI-H1395 | 0.764
NCI-H1563 | 0.798
NCI-H1793 | 0.732
NCI-H1944 | 0.571
NCI-H358 | 0.187

Same assay, conditions: first compound 0.3162 µM

Cell Line | relative viability
NCI-H522 | 1.19
PC-14 | 0.14
NCI-H1666 | 0.805
NCI-H1755 | 0.441
NCI-H2023 | 0.264
EPLC-272H | 0.412
LCLC-97TM1 | 0.163
PC-3 [JPC-3] | 1.26
LOU-NH91 | 0.327
NCI-H647 | 0.178
NCI-H23 | 0.76
EMC-BAC-2 | 0.467
NCI-H2126 | 0.653
HCC-44 | 0.649
NCI-H1734 | 0.422
NCI-H650 | 0.89
LK-2 | 0.249
NCI-H2228 | 0.272
NCI-H2342 | 0.738

Cell Line | relative viability
SK-MES-1 | 0.956
HARA | 0.329
COR-L23 | 0.199
COR-L 105 | 1.16
LC-2-ad | 0.262
LXF-289 | 0.873
ChaGo-K-1 | 0.26
NCI-H2170 | 0.259
NCI-H322M | 0.627
HCC-78 | 0.935
SW 900 | 0.499
NCI-H1648 | 0.626
NCI-H1792 | 0.815
NCI-H1395 | 0.95
NCI-H1563 | 0.744
NCI-H1793 | 0.799
NCI-H1944 | 0.607
NCI-H358 | 0.178

Same assay, conditions: first compound 1 µM

Cell Line | relative viability
NCI-H522 | 0.759
PC-14 | 0.143
NCI-H1666 | 0.799
NCI-H1755 | 0.407
NCI-H2023 | 0.203
EPLC-272H | 0.36
LCLC-97TM1 | 0.153
PC-3 [JPC-3] | 1.01
